# Reference: ChEMBL document CHEMBL4480385, “Design, synthesis and molecular docking studies of novel N-arylsulfonyl-benzimidazoles with anti Trypanosoma cruzi activity” (Eur J Med Chem, 2019)
# Assay: Inhibition of Trypanosoma cruzi holoenzyme form of PFK
row,Compound,pIC50
1,Cc1cc(NS(=O)(=O)c2ccc(NC(=O)Cc3ccc(Cl)c(F)c3)cc2)no1,2.81
2,Cc1cc(NS(=O)(=O)c2ccc(NC(=O)Cc3ccc(C)c(C)c3)cc2)no1,3.81
3,Cc1cc(NS(=O)(=O)c2ccc(C(=O)NCc3ccc(Cl)c(Cl)c3)cc2)no1,3.51
4,Cc1cc(NS(=O)(=O)c2ccc(NC(=O)Cc3ccc(Cl)c(Cl)c3)cc2)n(C)n1,2.96
5,Cc1cc(NS(=O)(=O)c2ccc(NC(=O)Cc3ccc(Cl)cc3Cl)cc2)no1,4.21
6,CN(C)c1cccc(NS(=O)(=O)c2ccc(NC(=O)Cc3ccc(Cl)c(Cl)c3)cc2)c1,4.11
7,Cc1cc(NS(=O)(=O)c2ccc(NC(=O)C(C)(C)c3ccc(Cl)c(Cl)c3)cc2)no1,4.56
8,Cc1cc(NS(=O)(=O)c2ccc(NC(=O)CCc3ccc(Cl)c(Cl)c3)cc2)no1,4.06
9,Cc1cc(NS(=O)(=O)c2ccc(N(C)C(=O)Cc3ccc(Cl)c(Cl)c3)cc2)no1,3.06
10,Cc1cc(NS(=O)(=O)C2CCN(C(=O)Cc3ccc(Cl)c(Cl)c3)CC2)no1,4.16
11,Cc1cc(NS(=O)(=O)Cc2ccc(NC(=O)Cc3ccc(Cl)c(Cl)c3)cc2)no1,3.66
12,Cc1cc(NS(=O)(=O)c2ccc(NC(=O)Cc3cccc(Cl)c3)cc2)no1,3.46
13,O=C(Cc1ccc(F)c(Cl)c1)Nc1ccc(S(=O)(=O)Nc2nncs2)cc1,2.23
14,Cc1cc(N(C)S(=O)(=O)c2ccc(NC(=O)Cc3ccc(Cl)c(Cl)c3)cc2)no1,3.41
15,O=C(Cc1ccc(Cl)c(Cl)c1)Nc1ccc(S(=O)(=O)Nc2cc[nH]n2)cc1,2.86
16,Cc1cc(NS(=O)(=O)c2cccc(NC(=O)Cc3ccc(Cl)c(Cl)c3)c2)no1,4.21
17,Cc1cc(NS(=O)(=O)c2ccc(NC(=O)Cc3ccc(C)c(F)c3)cc2)no1,3.81
18,Cc1cc(NS(=O)(=O)c2ccc(NC(=O)Cc3ccc(Cl)cc3)cc2)no1,3.11
19,Cc1cc(NS(=O)(=O)c2ccc(NC(=O)Cc3ccccc3)cc2)no1,4.31
20,Cc1cc(NS(=O)(=O)c2ccc(NC(=O)c3ccc(Cl)c(Cl)c3)cc2)no1,4.31
21,O=C(Cc1ccc(Cl)c(Cl)c1)Nc1ccc(S(=O)(=O)Nc2ccon2)cc1,2.11
22,O=C(Cc1ccc(F)c(Cl)c1)Nc1ccc(S(=O)(=O)Nc2nccs2)cc1,2.07
23,O=C(Cc1ccc(Cl)c(Cl)c1)Nc1ccc(S(=O)(=O)Nc2ccccc2)cc1,4.21

# Assay: Inhibition of Trypanosoma cruzi apoenzyme form of PFK
row,Compound,pIC50
1,Cc1cc(NS(=O)(=O)c2ccc(NC(=O)Cc3ccc(Cl)c(F)c3)cc2)no1,2.81
2,Cc1cc(NS(=O)(=O)c2ccc(NC(=O)Cc3ccc(C)c(C)c3)cc2)no1,3.81
3,Cc1cc(NS(=O)(=O)c2ccc(C(=O)NCc3ccc(Cl)c(Cl)c3)cc2)no1,3.51
4,Cc1cc(NS(=O)(=O)c2ccc(NC(=O)Cc3ccc(Cl)c(Cl)c3)cc2)n(C)n1,3.06
5,Cc1cc(NS(=O)(=O)c2ccc(NC(=O)Cc3ccc(Cl)cc3Cl)cc2)no1,4.21
6,CN(C)c1cccc(NS(=O)(=O)c2ccc(NC(=O)Cc3ccc(Cl)c(Cl)c3)cc2)c1,4.11
7,Cc1cc(NS(=O)(=O)c2ccc(NC(=O)C(C)(C)c3ccc(Cl)c(Cl)c3)cc2)no1,4.56
8,Cc1cc(NS(=O)(=O)c2ccc(NC(=O)CCc3ccc(Cl)c(Cl)c3)cc2)no1,4.06
9,Cc1cc(NS(=O)(=O)c2ccc(N(C)C(=O)Cc3ccc(Cl)c(Cl)c3)cc2)no1,3.16
10,Cc1cc(NS(=O)(=O)C2CCN(C(=O)Cc3ccc(Cl)c(Cl)c3)CC2)no1,4.16
11,Cc1cc(NS(=O)(=O)Cc2ccc(NC(=O)Cc3ccc(Cl)c(Cl)c3)cc2)no1,3.66
12,Cc1cc(NS(=O)(=O)c2ccc(NC(=O)Cc3cccc(Cl)c3)cc2)no1,3.46
13,O=C(Cc1ccc(F)c(Cl)c1)Nc1ccc(S(=O)(=O)Nc2nncs2)cc1,2.23
14,Cc1cc(N(C)S(=O)(=O)c2ccc(NC(=O)Cc3ccc(Cl)c(Cl)c3)cc2)no1,3.41
15,O=C(Cc1ccc(Cl)c(Cl)c1)Nc1ccc(S(=O)(=O)Nc2cc[nH]n2)cc1,2.86
16,Cc1cc(NS(=O)(=O)c2cccc(NC(=O)Cc3ccc(Cl)c(Cl)c3)c2)no1,4.21
17,Cc1cc(NS(=O)(=O)c2ccc(NC(=O)Cc3ccc(C)c(F)c3)cc2)no1,3.81
18,Cc1cc(NS(=O)(=O)c2ccc(NC(=O)Cc3ccc(Cl)cc3)cc2)no1,3.21
19,Cc1cc(NS(=O)(=O)c2ccc(NC(=O)Cc3ccccc3)cc2)no1,4.31
20,Cc1cc(NS(=O)(=O)c2ccc(NC(=O)c3ccc(Cl)c(Cl)c3)cc2)no1,4.31
21,O=C(Cc1ccc(Cl)c(Cl)c1)Nc1ccc(S(=O)(=O)Nc2ccon2)cc1,2.11
22,O=C(Cc1ccc(F)c(Cl)c1)Nc1ccc(S(=O)(=O)Nc2nccs2)cc1,2.07
23,O=C(Cc1ccc(Cl)c(Cl)c1)Nc1ccc(S(=O)(=O)Nc2ccccc2)cc1,4.21
